Source: patent US10004701B2, “Methods and compositions for treating infection” (UNIVERSITY OF ROCHESTER, priority 2012, dated 2018)
Where a name gives a salt, the structure may show the parent alone. Read-outs that look alike come from different tables or passages of the source.

Experiments:
Test in all cases: AK assay 384-well format, Prestwick library screening
[1] = test system: P. aeruginosa; assay type: cell-based, Pseudomonas aeruginosa; details: 50 μM final drug concentration; for fold induction at 50 µM: Pseudomonas aeruginosa, 3 h
[2] = test system: K. pneumoniae; assay type: cell-based, Klebsiella pneumoniae; details: 50 μM final drug concentration; for fold induction at 50 µM: Klebsiella pneumoniae, 3 h
[3] = test system: A. baumannii strain 98-37-09; assay type: cell-based, Acinetobacter baumannii; details: 50 μM final drug concentration; for fold induction at 50 µM: Acinetobacter baumannii, 983709, 3 h
[4] = test system: E. cloacae; assay type: cell-based, Enterobacter cloacae; details: 50 μM final drug concentration; for fold induction at 50 µM: Enterobacter cloacae, 3 h
[5] = test system: E. coli; assay type: cell-based, Escherichia coli; details: 50 μM final drug concentration; for fold induction at 50 µM: Escherichia coli, 3 h
[6] = test system: S. aureus strain USA300-0114; assay type: cell-based, Staphylococcus aureus; details: 50 μM final drug concentration; for fold induction at 50 µM: Staphylococcus aureus, USA300, 3 h
[7] = test system: E. faecium; assay type: cell-based, Enterococcus faecium; details: 50 μM final drug concentration; for fold induction at 50 µM: Enterococcus faecium, 3 h
[8] = planktonic, cutoff for positive-scoring molecules 3-fold increase, read-out: AK-based Prestwick Library Screening Results, P. aeruginosa (fold increase in extracellular AK activity)
[9] = planktonic, cutoff for positive-scoring molecules 3-fold increase, read-out: AK-based Prestwick Library Screening Results, K. pneumoniae (fold increase in extracellular AK activity)
[10] = planktonic, cutoff for positive-scoring molecules 3-fold increase, read-out: AK-based Prestwick Library Screening Results, A. baumannii (fold increase in extracellular AK activity)
[11] = planktonic, cutoff for positive-scoring molecules 3-fold increase, read-out: AK-based Prestwick Library Screening Results, E. cloacae (fold increase in extracellular AK activity)
[12] = planktonic, cutoff for positive-scoring molecules 3-fold increase, read-out: AK-based Prestwick Library Screening Results, E. coli (fold increase in extracellular AK activity)
[13] = planktonic, cutoff for positive-scoring molecules 3-fold increase, read-out: AK-based Prestwick Library Screening Results, S. aureus (fold increase in extracellular AK activity)
[14] = planktonic, cutoff for positive-scoring molecules 3-fold increase, read-out: AK-based Prestwick Library Screening Results, E. faecium (fold increase in extracellular AK activity)
[15] = planktonic, cutoff for positive 3-fold increase

## CC(=O)[C@H]1CC[C@H]2[C@@H]3C=CC4=CC(=O)CC[C@@]4(C)[C@@H]3CC[C@]12C [Dydrogesterone]
[1]; [8]
  fold induction at 50 µM: 0.9
[2]; [9]
  fold induction at 50 µM: 0.8
[3]; [10]
  fold induction at 50 µM: 0.8
[4]; [11]
  fold induction at 50 µM: 1.2
[5]; [12]
  fold induction at 50 µM: 0.9
[6]; [13]
  fold induction at 50 µM: 0.7
[7]; [14]
  fold induction at 50 µM: 1

## CC1(C)S[C@@H]2[C@H](NC(=O)[C@H](NC(=O)N3CCNC3=O)c3ccccc3)C(=O)N2[C@H]1C(=O)O [Azlocillin sodium salt]
[1]; [8]
  fold induction at 50 µM: 9.7
[2]; [9]
  fold induction at 50 µM: 0.7
[3]; [10]
  fold induction at 50 µM: 2.1
[4]; [11]
  fold induction at 50 µM: 1
[5]; [12]
  fold induction at 50 µM: 12.3
[6]; [13]
  fold induction at 50 µM: 0.4
[7]; [14]
  fold induction at 50 µM: 0.9

## Cc1cc(C2CCCCC2)n(O)c(=O)c1.NCCO [Ciclopirox ethanolamine]
[1]; [15]
  AK-based Prestwick Library Screening Results, P. aeruginosa (fold increase in extracellular AK activity): 1.0
[2]; [15]
  AK-based Prestwick Library Screening Results, K. pneumoniae (fold increase in extracellular AK activity): 0.9
[3]; [15]
  AK-based Prestwick Library Screening Results, A. baumannii (fold increase in extracellular AK activity): 1.2
[4]; [15]
  AK-based Prestwick Library Screening Results, E. cloacae (fold increase in extracellular AK activity): 1.2
[5]; [15]
  AK-based Prestwick Library Screening Results, E. coli (fold increase in extracellular AK activity): 1.1
[6]; [15]
  AK-based Prestwick Library Screening Results, S. aureus (fold increase in extracellular AK activity): 0.7
[7]; [15]
  AK-based Prestwick Library Screening Results, E. faecium (fold increase in extracellular AK activity): 1.6

## C=CCSCC1Nc2cc(Cl)c(S(N)(=O)=O)cc2S(=O)(=O)N1 (centres unmarked) [Althiazide]
[1]; planktonic, cutoff for positive 3-fold increase, read-out: AK-based Prestwick Library Screening Results, P. aeruginosa (fold increase in extracellular AK activity)
  fold induction at 50 µM: 0.4
[2]; planktonic, cutoff for positive 3-fold increase, read-out: AK-based Prestwick Library Screening Results, K. pneumoniae (fold increase in extracellular AK activity)
  fold induction at 50 µM: 0.4
[3]; planktonic, cutoff for positive 3-fold increase, read-out: AK-based Prestwick Library Screening Results, A. baumannii (fold increase in extracellular AK activity)
  fold induction at 50 µM: 0.4
[4]; planktonic, cutoff for positive 3-fold increase, read-out: AK-based Prestwick Library Screening Results, E. cloacae (fold increase in extracellular AK activity)
  fold induction at 50 µM: 0.3
[5]; planktonic, cutoff for positive 3-fold increase, read-out: AK-based Prestwick Library Screening Results, E. coli (fold increase in extracellular AK activity)
  fold induction at 50 µM: 0.4
[6]; planktonic, cutoff for positive 3-fold increase, read-out: AK-based Prestwick Library Screening Results, S. aureus (fold increase in extracellular AK activity)
  fold induction at 50 µM: 0.4
[7]; planktonic, cutoff for positive 3-fold increase, read-out: AK-based Prestwick Library Screening Results, E. faecium (fold increase in extracellular AK activity)
  fold induction at 50 µM: 1

## CCN(CCCCOC(=O)c1ccc(OC)c(OC)c1)C(C)Cc1ccc(OC)cc1 (centres unmarked) [Mebeverine hydrochloride]
[1]; planktonic P. aeruginosa, 384-well, cutoff for positive-scoring molecules 3-fold increase, read-out: AK-based Prestwick Library Screening Results: P. aeruginosa (increase in extracellular AK activity)
  fold induction at 50 µM: 1.1
[2]; planktonic K. pneumoniae, 384-well, cutoff for positive-scoring molecules 3-fold increase, read-out: AK-based Prestwick Library Screening Results: K. pneumoniae (increase in extracellular AK activity)
  fold induction at 50 µM: 1
[3]; planktonic A. baumannii, 384-well, cutoff for positive-scoring molecules 3-fold increase, read-out: AK-based Prestwick Library Screening Results: A. baumannii (increase in extracellular AK activity)
  fold induction at 50 µM: 1.4
[4]; planktonic E. cloacae, 384-well, cutoff for positive-scoring molecules 3-fold increase, read-out: AK-based Prestwick Library Screening Results: E. cloacae (increase in extracellular AK activity)
  fold induction at 50 µM: 1.3
[5]; planktonic E. coli, 384-well, cutoff for positive-scoring molecules 3-fold increase, read-out: AK-based Prestwick Library Screening Results: E. coli (increase in extracellular AK activity)
  fold induction at 50 µM: 1.3
[6]; planktonic S. aureus, 384-well, cutoff for positive-scoring molecules 3-fold increase, read-out: AK-based Prestwick Library Screening Results: S. aureus (increase in extracellular AK activity)
  fold induction at 50 µM: 1.1
[7]; planktonic E. faecium, 384-well, cutoff for positive-scoring molecules 3-fold increase, read-out: AK-based Prestwick Library Screening Results: E. faecium (increase in extracellular AK activity)
  fold induction at 50 µM: 1

## CCC(=O)O[C@H]1CC[C@H]2[C@@H]3CCC4=CC(=O)CC[C@]4(C)[C@H]3CC[C@]12C [Testosterone propionate]
[1]; planktonic P. aeruginosa, 384-well, […], read-out: AK-based Prestwick Library Screening Results: P. aeruginosa (increase in extracellular AK activity)
  fold induction at 50 µM: 0.4
[2]; planktonic K. pneumoniae, 384-well, […], read-out: AK-based Prestwick Library Screening Results: K. pneumoniae (increase in extracellular AK activity)
  fold induction at 50 µM: 0.4
[3]; planktonic A. baumannii, 384-well, […], read-out: AK-based Prestwick Library Screening Results: A. baumannii (increase in extracellular AK activity)
  fold induction at 50 µM: 0.5
[4]; planktonic E. cloacae, 384-well, […], read-out: AK-based Prestwick Library Screening Results: E. cloacae (increase in extracellular AK activity)
  fold induction at 50 µM: 0.3
[5]; planktonic E. coli, 384-well, […], read-out: AK-based Prestwick Library Screening Results: E. coli (increase in extracellular AK activity)
  fold induction at 50 µM: 0.5
[6]; planktonic S. aureus, 384-well, […], read-out: AK-based Prestwick Library Screening Results: S. aureus (increase in extracellular AK activity)
  fold induction at 50 µM: 0.3
[7]; planktonic E. faecium, 384-well, […], read-out: AK-based Prestwick Library Screening Results: E. faecium (increase in extracellular AK activity)
  fold induction at 50 µM: 0.9

## NS(=O)(=O)c1cc2c(cc1Cl)N=CNS2(=O)=O [Chlorothiazide]
[1]; 384-well format, cutoff for positive-scoring molecules 3-fold increase, read-out: AK-based Prestwick Library Screening Results, P. aeruginosa (increase in extracellular AK activity)
  fold induction at 50 µM: 0.9
[2]; 384-well format, cutoff for positive-scoring molecules 3-fold increase, read-out: AK-based Prestwick Library Screening Results, K. pneumoniae (increase in extracellular AK activity)
  fold induction at 50 µM: 0.7
[3]; 384-well format, cutoff for positive-scoring molecules 3-fold increase, read-out: AK-based Prestwick Library Screening Results, A. baumannii (increase in extracellular AK activity)
  fold induction at 50 µM: 0.9
[4]; 384-well format, cutoff for positive-scoring molecules 3-fold increase, read-out: AK-based Prestwick Library Screening Results, E. cloacae (increase in extracellular AK activity)
  fold induction at 50 µM: 0.9
[5]; 384-well format, cutoff for positive-scoring molecules 3-fold increase, read-out: AK-based Prestwick Library Screening Results, E. coli (increase in extracellular AK activity)
  fold induction at 50 µM: 0.9
[6]; 384-well format, cutoff for positive-scoring molecules 3-fold increase, read-out: AK-based Prestwick Library Screening Results, S. aureus (increase in extracellular AK activity)
  fold induction at 50 µM: 0.8
[7]; 384-well format, cutoff for positive-scoring molecules 3-fold increase, read-out: AK-based Prestwick Library Screening Results, E. faecium (increase in extracellular AK activity)
  fold induction at 50 µM: 1

## C[N+](C)(C)CCCCCCCCCC[N+](C)(C)C [Decamethonium bromide]
[1]; cutoff for positive-scoring molecules 3-fold increase, read-out: AK-based Prestwick Library Screening Results, P. aeruginosa (fold increase in extracellular AK activity)
  fold induction at 50 µM: 0.4
[2]; cutoff for positive-scoring molecules 3-fold increase, read-out: AK-based Prestwick Library Screening Results, K. pneumoniae (fold increase in extracellular AK activity)
  fold induction at 50 µM: 0.5
[3]; cutoff for positive-scoring molecules 3-fold increase, read-out: AK-based Prestwick Library Screening Results, A. baumannii (fold increase in extracellular AK activity)
  fold induction at 50 µM: 0.5
[4]; cutoff for positive-scoring molecules 3-fold increase, read-out: AK-based Prestwick Library Screening Results, E. cloacae (fold increase in extracellular AK activity)
  fold induction at 50 µM: 0.5
[5]; cutoff for positive-scoring molecules 3-fold increase, read-out: AK-based Prestwick Library Screening Results, E. coli (fold increase in extracellular AK activity)
  fold induction at 50 µM: 0.5
[6]; cutoff for positive-scoring molecules 3-fold increase, read-out: AK-based Prestwick Library Screening Results, S. aureus (fold increase in extracellular AK activity)
  fold induction at 50 µM: 0.4
[7]; cutoff for positive-scoring molecules 3-fold increase, read-out: AK-based Prestwick Library Screening Results, E. faecium (fold increase in extracellular AK activity)
  fold induction at 50 µM: 0.9
